# Data: EP3319959B1, “HETERO-HALO INHIBITORS OF HISTONE DEACETYLASE” (Alkermes, Inc., priority 2015, dated 2017)
# Tested on: recombinant human HDACs
# Assay: HDAC enzymatic assay (LabChip capillary electrophoresis)
# Format: biochemical
# Conditions: 5 nM HDAC enzyme, 1 uM substrate, 5 hours pre-incubation, 17 hours reaction at 25°C; isoform not given
# Procedure: All recombinant human HDACs were purchased from BPS Bioscience. The substrate, FAM-TSRHK(AC)KL-CONH, was synthesized at NanoSyn. Final assay reactions contained 100 mM HEPES (pH 7.5), 50 mM KCl, 0.1% BSA, 0.01% Triton X-100, 1% DMSO, 1 uM substrate and 5 nM HDAC enzyme. Enzyme and compounds were pre-incubated at 25°C for 5 hours and reactions were initiated by addition of substrate. 10 uL reactions were incubated for 17 hours at 25°C and terminated by the addition of 40 uL of buffer containing 100 mM HEPES (pH 7.5), 0.1% BSA, 0.01% Triton X-100 and 0.05% SDS. Substrate and product peptides present in each sample were separated electrophoretically using the LabChip 3000 capillary electrophoresis instrument. Change in the relative fluorescence intensity of the substrate and product peaks reflects enzyme activity. Reaction progress was determined as the product to sum ratio (PSR): P/(S+P), where P is the peak height of the product peptide and S is the peak height of the substrate peptide. Reactions were performed in duplicate at 12 concentrations, (3X serial dilutions starting at 30 uM). IC50 values were calculated using a 4 Parameter Logistic Model.
row,SMILES,IC50 [µM]
1,Nc1ccc(-c2ccc(F)cc2)nc1NC(=O)[C@H]1[C@@H]2CN(C3COC3)C[C@@H]21 (stereo in doubt) [Compound 239],> 5
2,CN1CC(N2C[C@@H]3[C@H](C2)[C@H]3C(=O)Nc2nc(-c3ccc(F)cc3)ccc2N)C1 (stereo in doubt) [Compound 241],> 5
3,Nc1ccc(-c2ccc(F)cc2)nc1NC(=O)[C@H]1[C@@H]2CN(C3CCOCC3)C[C@@H]21 (stereo in doubt) [Compound 264],> 5
4,Cn1cc(CN2CCCC3(CCN(C(=O)Nc4nn(-c5ccc(F)cc5)cc4N)C3)C2)cn1 (stereo not drawn) [Compound 123],> 5
5,COc1cccc(CN2CCCC3(CCN(C(=O)Nc4nn(-c5ccc(F)cc5)cc4N)C3)C2)c1 (stereo not drawn) [Compound 124],> 5
6,Nc1cn(-c2ccc(F)cc2)nc1NC(=O)N1CCN(C(=O)[C@@H]2C[C@H]2c2ccccc2)CC1 [Compound 125],0.5 to 5
7,Cc1cnc(C(=O)Nc2nn(-c3ccccc3)cc2N)s1 [Compound 126],0.5 to 5
8,Nc1ccc(-c2cccnc2)nc1NC(=O)c1nc2c(s1)CCN(CCF)C2 [Compound 164],0.5 to 5
9,Nc1ccc(-c2ccc(F)cc2)nc1NC(=O)c1nc2c(s1)CCN(CCF)C2 [Compound 165],0.1 to 0.5
10,Nc1ccc(-n2cccn2)nc1NC(=O)N1CC2CN(CCF)CC2C1 (stereo not drawn) [Compound 167],> 5
11,Nc1ccc(-c2cccnc2)nc1NC(=O)N1CCC2(CCCNC2)C1 (stereo not drawn) [Compound 171],> 5
12,Nc1ccc(-c2ccc(F)cc2)nc1NC(=O)N1CC2CC(NC3COC3)CC2C1 (stereo not drawn) [Compound 172],0.5 to 5
13,Nc1ccc(-c2ccco2)nc1NC(=O)N1CC2CN(CCF)CC2C1 (stereo not drawn) [Compound 174],> 5
14,Nc1ccc(-c2ccco2)nc1NC(=O)N1CC2CN(Cc3ccccc3F)CC2C1 (stereo not drawn) [Compound 175],> 5
15,Nc1ccc(-n2cccn2)nc1NC(=O)N1CC2CN(Cc3ccccc3F)CC2C1 (stereo not drawn) [Compound 177],> 5
16,Nc1ccc(-c2ccc(F)cc2)nc1NC(=O)N1CC2CC(N3CCOCC3)CC2C1 (stereo not drawn) [Compound 181],> 5
17,Nc1ccc(-c2ccco2)nc1NC(=O)N1CC2CN(C3COC3)CC2C1 (stereo not drawn) [Compound 182],> 5
18,CN1CC2CN(C(=O)Nc3nc(-n4cccn4)ccc3N)CC2C1 (stereo not drawn) [Compound 184],> 5
19,Nc1ccc(-n2cccn2)nc1NC(=O)N1Cc2cc(F)cnc2C1 [Compound 185],0.5 to 5
20,Nc1ccc(-c2ccc(F)cc2)nc1NC(=O)N1CC2CC(N3CC(F)C3)CC2C1 (stereo not drawn) [Compound 188],0.5 to 5
21,Nc1ccc(-c2ccco2)nc1NC(=O)N1CC2CC(N3CC(F)C3)CC2C1 (stereo not drawn) [Compound 189],> 5
22,Nc1ccc(-n2cccn2)nc1NC(=O)N1CC2CC(N3CC(F)C3)CC2C1 (stereo not drawn) [Compound 190],> 5
23,Nc1ccc(-c2ccccc2)nc1NC(=O)N1CC2CC(NC3COC3)CC2C1 (stereo not drawn) [Compound 191],0.5 to 5
24,Nc1ccc(-c2ccc(F)cc2)nc1NC(=O)C1CN(c2ccccn2)C1 [Compound 192],> 5
25,Nc1ccc(-c2ccco2)nc1NC(=O)C1CN(c2ccccn2)C1 [Compound 193],> 5
26,Nc1ccc(-c2ccccc2)nc1NC(=O)CN1CCn2cncc2C1 [Compound 194],> 5

row,SMILES,IC50 [µM]
1,Nc1ccc(-c2ccccc2)nc1NC(=O)C1CN(c2ccccn2)C1 [Compound 195],> 5
2,CC(=O)N1CCN(CC(=O)Nc2nc(-c3ccccc3)ccc2N)CC1 [Compound 196],> 5
3,Nc1ccc(-c2ccccc2)nc1NC(=O)N1CCn2ccnc2C1 [Compound 197],> 5
4,Nc1ccc(-c2ccco2)nc1NC(=O)C1CN(Cc2ccccc2)C1 [Compound 198],> 5
5,Nc1ccc(-c2ccccc2)nc1NC(=O)N1CC2CN(C3COC3)CC2C1 (stereo not drawn) [Compound 199],> 5
6,Nc1ccc(-c2ccc(F)cc2)nc1NC(=O)N1CC2CN(C3COC3)CC2C1 (stereo not drawn) [Compound 203],> 5
7,Nc1ccc(-n2cccn2)nc1NC(=O)C1CN(Cc2ccccc2)C1 [Compound 205],> 5
8,CN1CCn2cc(C(=O)Nc3nc(-c4ccccc4)ccc3N)nc2C1 [Compound 206],0.5 to 5
9,Nc1ccc(-c2ccccc2)nc1NC(=O)c1cn2c(n1)CNCC2 [Compound 208],0.5 to 5
10,CN1CCC2(CC1)CCN(C(=O)Nc1nc(-c3cccnc3)ccc1N)C2 [Compound 210],> 5
11,CN1CCCC2(CCN(C(=O)Nc3nc(-c4cccnc4)ccc3N)C2)C1 (stereo not drawn) [Compound 211],> 5
12,Nc1ccc(-c2ccccc2)nc1NC(=O)N1CCn2cncc2C1 [Compound 212],> 5
13,Nc1ccc(-c2cccnc2)nc1NC(=O)N1Cc2nccnc2C1 [Compound 214],0.5 to 5
14,Cn1cc(CN2CCC3(CC2)CCN(C(=O)Nc2nc(-c4cccnc4)ccc2N)C3)cn1 [Compound 215],> 5
15,Nc1ccc(-c2cccnc2)nc1NC(=O)N1Cc2cc(F)cnc2C1 [Compound 218],> 5
16,Nc1ccc(-c2cccnc2)nc1NC(=O)c1cn2c(n1)CNCC2 [Compound 219],> 5
17,Nc1ccc(-c2cccnc2)nc1NC(=O)N1CC2(CCNCC2)C1 [Compound 220],> 5
18,Nc1ccc(-c2cccnc2)nc1NC(=O)N1CCCC1 [Compound 221],> 5
19,Cn1cc(CN2CCCC3(CCN(C(=O)Nc4nc(-c5ccc(F)cc5)ccc4N)C3)C2)cn1 (stereo not drawn) [Compound 223],> 5
20,Cc1cnc(C(=O)Nc2nc(-c3ccc(F)cc3)ccc2N)s1 [Compound 226],0.1 to 0.5
21,Nc1ccc(-c2ccc(OC(F)F)cc2)nc1NC(=O)N1Cc2nccnc2C1 [Compound 228],0.5 to 5
22,Nc1ccc(-c2ccc(OC(F)F)cc2)nc1NC(=O)N1CCCC1 [Compound 232],0.5 to 5
23,Nc1ccc(-c2ccc(F)cc2)nc1NC(=O)N1CC2CN(CC3CCOCC3)CC2C1 (stereo not drawn) [Compound 235],> 5
24,Nc1ccc(-c2ccc(F)cc2)nc1NC(=O)N1CC2CN(C3CCOCC3)CC2C1 (stereo not drawn) [Compound 236],> 5
25,CN(C1CCOC1)C1CC2CN(C(=O)Nc3nc(-c4ccc(F)cc4)ccc3N)CC2C1 (stereo not drawn) [Compound 237],> 5
26,Nc1ccc(-c2ccc(F)cc2)nc1NC(=O)N1C[C@@H]2[C@@H](CO)[C@@H]2C1 [Compound 238],0.5 to 5

# The next lines start with the values.
row,IC50 [µM],SMILES
1,0.5 to 5,Nc1ccc(-c2ccc(F)cc2)nc1NC(=O)N1CCN(C(=O)[C@@H]2C[C@H]2c2ccccc2)CC1 (stereo in doubt) [Compound 225]
2,0.5 to 5,Nc1ccc(-c2ccc(F)cc2)nc1NC(=O)N1CC2CC(N3CCC3)CC2C1 (stereo not drawn) [Compound 143]
3,0.1 to 0.5,Nc1ccc(-c2ccc(F)cc2)nc1NC(=O)N1Cc2cnc(N3CCC3)cc2C1 [Compound 147]
4,0.1 to 0.5,Nc1ccc(-c2ccc(F)cc2)nc1NC(=O)N1Cc2cnc(N3CCOCC3)cc2C1 [Compound 150]
5,0.1 to 0.5,Cc1cc2c(cn1)CN(C(=O)Nc1nc(-c3ccc(F)cc3)ccc1N)C2 [Compound 151]
6,0.5 to 5,CN1CC(N2CC3CN(C(=O)Nc4nc(-c5ccc(F)cc5)ccc4N)CC3C2)C1 (stereo not drawn) [Compound 152]
7,0.1 to 0.5,CN1CCc2sc(C(=O)Nc3nc(-c4ccc(F)cc4)ccc3N)nc2C1 [Compound 153]
8,0.1 to 0.5,Nc1ccc(-c2ccc(F)cc2)nc1NC(=O)N1Cc2cc(N3CCC3)cnc2C1 [Compound 157]
9,0.1 to 0.5,Nc1ccc(-c2ccc(F)cc2)nc1NC(=O)N1Cc2cc(N3CCOCC3)cnc2C1 [Compound 158]
10,0.1 to 0.5,CN1CCN(c2cc3c(cn2)CN(C(=O)Nc2nc(-c4ccc(F)cc4)ccc2N)C3)CC1 [Compound 160]
11,0.5 to 5,CN(C)CCN1CC2CN(C(=O)Nc3nc(-c4ccc(F)cc4)ccc3N)CC2C1 (stereo not drawn) [Compound 166]
12,0.1 to 0.5,CN1CCN(Cc2cnc3c(c2)CN(C(=O)Nc2nc(-c4ccc(F)cc4)ccc2N)C3)CC1 [Compound 168]
13,0.5 to 5,CN1CCC(N2CC3CN(C(=O)Nc4nc(-c5ccc(F)cc5)ccc4N)CC3C2)CC1 (stereo not drawn) [Compound 169]
14,0.5 to 5,Cc1ccc(C2CN(C(=O)Nc3nc(-c4ccc(F)cc4)ccc3N)C2)cc1 [Compound 170]
15,0.5 to 5,COc1ccc(-c2ccc(N)c(NC(=O)N3Cc4ccncc4C3)n2)cc1 [Compound 173]
16,0.5 to 5,Nc1ccc(-c2ccc(F)cc2)nc1NC(=O)N1CC2CN(Cc3ccccc3F)CC2C1 (stereo not drawn) [Compound 176]
17,> 5,CN1CCN(Cc2cccc3c2CN(C(=O)Nc2nc(-c4ccc(F)cc4)ccc2N)C3)CC1 [Compound 178]
18,0.5 to 5,CN1CCN(C2CC3CN(C(=O)Nc4nc(-c5ccc(F)cc5)ccc4N)CC3C2)CC1 (stereo not drawn) [Compound 179]
19,> 5,Nc1ccc(-c2ccc(F)cc2)nc1NC(=O)N1CC2CN(CCF)CC2C1 (stereo not drawn) [Compound 183]
20,0.5 to 5,Nc1ccc(-c2ccc(F)cc2)nc1NC(=O)N1Cc2cc(F)cnc2C1 [Compound 186]
21,0.5 to 5,COc1ccc(-c2ccc(N)c(NC(=O)N3Cc4cc(F)cnc4C3)n2)cc1 [Compound 187]
22,> 5,CN1CC2CN(C(=O)Nc3nc(-c4ccc(F)cc4)ccc3N)CC2C1 (stereo not drawn) [Compound 201]
23,> 5,CN1CC(C(=O)Nc2nc(-c3ccc(F)cc3)ccc2N)C1 [Compound 204]
24,> 5,COc1cccc(CN2CCCC3(CCN(C(=O)Nc4nc(-c5ccc(F)cc5)ccc4N)C3)C2)c1 (stereo not drawn) [Compound 222]
25,> 5,Nc1ccc(-c2ccc(F)cc2)nc1NC(=O)N1CCN2CCCC2C1 (stereo not drawn) [Compound 224]
26,0.1 to 0.5,Nc1ccc(-c2ccc(F)cc2)nc1NC(=O)N1Cc2cnc(C3CCOCC3)cc2C1 [Compound 240]
